The text below walks through data of patent US20090042991A1, “Methods of increasing natural killer cell activity for therapy” (priority 2005, published 2009).

Common to all, as to format: in vivo, human
Data set [1] concerns NK cell activity. The data set can be described thus: NK cell cytotoxic activity of patient PBMC (K562/eGFP flow cytometry), sarcoma study. As to conditions: for % tumor cell lysis post-dose / NK activity (change before and after dosing) / % tumor cell lysis pre-dose: Paclitaxel 80 + Cmpnd (1) 213 mg/M^2 weekly; for % tumor cell lysis pre-dose: baseline before dosing. An excerpt: (§1) The following procedure can be employed to assay NK cell activity in a subject. The procedure is adapted from Kantakamalakul W, Jaroenpool J, Pattanapanyasat K. A novel enhanced green fluorescent protein (EGFP)-K562 flow cytometric method for measuring natural killer (NK) cell cytotoxic activity. J Immunol Methods. 2003 Jan. 15; 272:189-197, the entire teachings of which are incorporated herein by reference.
(§2) Materials and methods: Human erythroleukaemic cell line, K562, was obtained from American Type Culture Collection (CCL-243, American Type Culture Collection, Manassas, Va.), and cultured in RPMI-1640 medium (Cat#1875-093Gibco Invitrogen Corp, Carlsbad, Calif.) supplemented with 10% heat inactivated fetal calf serum (Gibco), 2 mM L-glutamin, 100 μg/ml streptomycin and 100 IU/ml penicillin at 37° C. with 5% CO2. K562 cells were transduced with retroviral vector which encode green fluorescent protein (eGFP). Stable cell line was selected with antibiotic, G418.
(§3) The subject's peripheral blood mononuclear cells (PBMCs) were prepared by clinical study sites and received in BD Vacutainer Cell Preparation Tube with sodium heparin (Product Number: 362753, Becton Dickinson, Franklin Lakes, N.J.).
(§4) Effector cells alone and target cells alone were used as controls. All tubes were incubated at 37° C. with 5% CO2 for about 3.5 hr. Ten microliters of propidium iodide (PI) at a concentration of 1 mg/mL was added t each tube including effector and target control tubes and then incubated at room temperature for 15 min.
(§5) Cytotoxic activity was analyzed with a FACSCalibur flow cytometer (Becton Dickinson). Linear amplification of the forward and side scatter (FSC/SSC) signals, as well as logarithmic amplification of eGFP and PI emission in green and red fluorescence were obtained. Ten thousand events per sample tube with no gating for acquisition were collected for analysis. Data analysis for two-parameter dot plots for eGFP versus PI was performed using CELLQuest (Becton Dickinson Biosciences) software to enumerate live and dead target cells. Debris and dead cells were excluded by setting a threshold of forward light scatter.
Best Response indicates an evaluation of the patient's tumor: PR=at least a 30% decrease in the sum of the longest diameters as compared to baseline; SD indicates less than 20% of an increase and less than 30% of a decrease in the sum of the longest diameters as compared to baseline; and PD=at least a 20% increase in the sum of the longest diameters as compared to baseline. NK Activity indicates the change in NK activity before and after dosing.

For data set [2], the system named is NK cell activity. Kind of data set: NK cell cytotoxic activity of patient PBMC (K562/eGFP flow cytometry), lung carcinoma study. As to conditions: for % tumor cell lysis post-dose / NK activity (change before and after dosing) / % tumor cell lysis pre-dose: Effector/Target 80:1; for % tumor cell lysis pre-dose: baseline before dosing.
Description: as §1, §2, §3, §4, §5
Dosing was IV q 3 weeks for up to 6 cycles in the absence of dose-limiting toxicity or progression. […] The phase 2 primary endpoint is time to progression, with secondary endpoints of response rate, survival, and quality of life. Study pharmacodynamic parameters include NK cell activity and Hsp70 level.
Best Response indicates an evaluation of the patient's tumor: PR=at least a 30% decrease in the sum of the longest diameters as compared to baseline, while SD indicates less than 20% of an increase and less than 30% of a decrease in the sum of the longest diameters as compared to baseline. […] NK Activity indicates the change in NK activity before and after dosing.

A further data set can be described thus: Sarcoma study: safety. Conditions: 213 mg/m2 Compound (1) and 80 mg/m2 paclitaxel weekly. Here is the method:
The study is a 2 stage design, enrolling 30 patients in the first stage and adding 50 patients to total 80 if certain continuation criteria are met. Major inclusion criteria are refractory or recurrent soft tissue sarcomas other than gastrointestinal stromal tumor (GIST), with evidence of recent progression. […] For example, the compounds were administered together 3 weeks out of 4 on Days 1, 8, and 15 of a 28 day cycle as a 1 hour IV infusion. 30 Patients have been enrolled to completed accrual of Stage 1.

The test system of data set [3] is advanced metastatic melanoma. Kind of data set: 2 stage Phase 2 study: tumor response with paclitaxel. As to conditions: for Best Response cycle 2 week 4: one value per subject. Here is the method:
The higher tolerated dose level was expanded to a total of 20 patients (Stage 1). The study will continue to Stage 2 if 7 or more patients have a response of stable disease or better, or at least 2 patients have a partial response or better. A safety assessment was performed with the first 6 patients enrolled as the weekly dose schedule had not previously been studied in humans. The primary endpoint is non-progression rate (NPR) at 3 months and response rate. Pharmacodynamic parameters include pre and post-dose NK cell activity in blood and when possible, tumor biopsies. […] Best Response indicates an evaluation of the patient's tumor: SD indicates less than 20% of an increase and less than 30% of a decrease in the sum of the longest diameters as compared to baseline; and PD=at least a 20% increase in the sum of the longest diameters as compared to baseline. NK Activity indicates the change in NK activity before and after dosing.

[4] abbreviates: Effector/Target 80:1, one value per subject.
[5] abbreviates: Effector/Target (40:1), subject 30.
Where [6] appears, read: Paclitaxel 175 + Cmpnd (1) 233 mg/M^2 (carboplatin AUC 6), one value per subject.
Where [7] appears, read: Paclitaxel 200 + Cmpnd (1) 266 mg/M^2 (carboplatin AUC 6), one value per subject.

“And” between values parts separate entries of the source, which are not always exact repeats. Equal values may be shown once. “Also recorded” adds a separate entry of the source.

As to `CN(NC(=O)CC(=O)NN(C)C(=S)c1ccccc1)C(=S)c1ccccc1` [Compound (1)], the “% tumor cell lysis post-dose” value with NK cell activity [1] (7 days after second dose, Effector/Target 80:1, one value per subject) was 14.74% and 22.9% and 28.13% and 17.18% and 5.46% and 7.41% and 7.84% and 30.48% and 20.04% and 11.86%; with NK cell activity [1] (setting [5]) it was 9.91%; with NK cell activity [2] (setting [6]), 30.8% and 7.75% and 14.61% and 16.14% and 8.76% and 10.05%; with NK cell activity [2] (setting [7]), 5.5% and 7.81%. In addition, the “NK activity (change before and after dosing)” value with NK cell activity [1] (setting [4]) is “decrease; also recorded: increase; also recorded: no change”; in the data set with NK cell activity [1] (setting [5]), “no change”; in the data set on NK cell activity [2] (setting [6]), “increase; also recorded: no change”; in the data set with NK cell activity [2] (setting [7]) it was “decrease; also recorded: increase”; with NK cell activity [2] (dose not printed (subjects 9-11), listed as Cmpnd (1)) it was “increase; also recorded: decrease”. The “% tumor cell lysis pre-dose” value in the data set on NK cell activity [1] (setting [4]) was 22.33% and 10.6% and 17.93% and 6.58% and 2.62% and 13.03% and 15.77% and 4.28% and 20.74% and 34.28%; in the data set with NK cell activity [1] (setting [5]), 9.88%; in the data set on NK cell activity [2] (setting [6]), 7.79% and 0.92% and 10.7% and 9.55% and 3.12% and 7.84%; in the data set with NK cell activity [2] (setting [7]), 8.4% and 3.59%. Further, in the data set on NK cell activity [1] (original patients of Table 4), the “patients with decrease in NK cell activity pre- to post-dose” value was “four of the original patients”. Besides, the “patients with statistically significant increase or no change in NK cell activity pre- to post-dose” value with NK cell activity [1] (original patients of Table 4) is listed as “seven of the original patients”. Also, the “patients with increased NK cell activity” value in the data set with NK cell activity [2] (evaluable samples, assayed 7 days after the second dose) is listed as “Seven of the 8”. Besides, in the data set with NK cell activity [2] (of the 11 original patients, paired t-test p=0.06, not significant), the “patients with increase in NK cell activity between pre- and post-dose” value stood at 8 patients. Further, the “tolerability of addition of Compound (1) to weekly paclitaxel schedule” value in “Sarcoma study: safety” was “well-tolerated”. Also, in data set [3] (20 evaluable patients, Stage 1), the “non-progression rate (NPR) at 3 months” value is given as 55%. The “Best Response cycle 2 week 4” value in data set [3] (Paclitaxel 80 + Cmpnd (1) 106 mg/M^2 weekly) was “SD (less than 20% of an increase and less than 30% of a decrease in the sum of the longest diameters as compared to baseline); also recorded: PD (at least a 20% increase in the sum of the longest diameters as compared to baseline)”; in data set [3] (Paclitaxel 80 + Cmpnd (1) 213 mg/M^2 weekly) it was “SD (less than 20% of an increase and less than 30% of a decrease in the sum of the longest diameters as compared to baseline); also recorded: PD (at least a 20% increase in the sum of the longest diameters as compared to baseline)”. In addition, in data set [3] (of 20 evaluable patients, Stage 1), the “patients stable at 3 months” value is given as 11 patients. Besides, in data set [3] (patients completing the study (#12-#20, #22)), the “patients with at least a 20% increase in sum of longest diameters (PD)” value is reported as “seven patients”.
